These results are taken from patent US20250066864A1, “METHODS FOR IDENTIFYING ADAR1 INHIBITORS, AND COMPOSITIONS AND METHODS OF USE IN TREATING CANCER” (The Wistar Institute of Anatomy and Biology, priority 2021, published 2025).

Structures are written as SMILES.

One assay has as its target T1, ADAR (Homo sapiens, UniProt P55265).
T1 sequence (P55265 1-1226): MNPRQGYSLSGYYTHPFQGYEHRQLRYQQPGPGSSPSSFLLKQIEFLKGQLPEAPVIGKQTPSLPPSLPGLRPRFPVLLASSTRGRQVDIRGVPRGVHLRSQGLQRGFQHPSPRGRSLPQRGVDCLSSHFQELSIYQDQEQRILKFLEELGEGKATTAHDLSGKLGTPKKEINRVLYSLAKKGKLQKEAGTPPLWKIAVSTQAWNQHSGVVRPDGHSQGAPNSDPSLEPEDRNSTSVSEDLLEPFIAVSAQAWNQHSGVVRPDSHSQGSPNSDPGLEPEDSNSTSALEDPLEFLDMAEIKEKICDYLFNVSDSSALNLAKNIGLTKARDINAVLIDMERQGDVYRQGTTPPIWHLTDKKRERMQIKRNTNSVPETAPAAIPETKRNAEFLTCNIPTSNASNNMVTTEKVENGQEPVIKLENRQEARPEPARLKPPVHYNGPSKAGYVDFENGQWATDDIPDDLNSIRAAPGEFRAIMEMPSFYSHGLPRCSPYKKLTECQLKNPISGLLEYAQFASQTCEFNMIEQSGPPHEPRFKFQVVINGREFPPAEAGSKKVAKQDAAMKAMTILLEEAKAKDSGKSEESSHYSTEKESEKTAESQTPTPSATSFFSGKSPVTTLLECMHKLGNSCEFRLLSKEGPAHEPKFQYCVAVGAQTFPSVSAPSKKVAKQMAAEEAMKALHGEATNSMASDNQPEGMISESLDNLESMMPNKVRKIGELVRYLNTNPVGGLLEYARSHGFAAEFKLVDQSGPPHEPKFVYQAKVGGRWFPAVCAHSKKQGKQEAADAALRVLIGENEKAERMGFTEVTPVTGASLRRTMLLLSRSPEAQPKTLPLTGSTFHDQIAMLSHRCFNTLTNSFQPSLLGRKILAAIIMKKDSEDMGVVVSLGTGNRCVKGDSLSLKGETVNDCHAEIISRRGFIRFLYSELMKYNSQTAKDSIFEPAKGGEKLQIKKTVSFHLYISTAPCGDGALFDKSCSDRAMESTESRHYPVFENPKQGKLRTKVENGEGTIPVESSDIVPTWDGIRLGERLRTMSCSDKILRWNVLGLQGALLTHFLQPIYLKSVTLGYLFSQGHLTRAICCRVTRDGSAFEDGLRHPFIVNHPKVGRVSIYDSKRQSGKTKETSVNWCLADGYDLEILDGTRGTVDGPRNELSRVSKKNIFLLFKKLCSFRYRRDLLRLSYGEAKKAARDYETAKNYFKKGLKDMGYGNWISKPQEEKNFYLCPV
Particulars: cited from earlier work.

A further assay relates to HeLa-Nluc-edit cells. Description: Firefly luciferase (FFL) activity in HeLa-Nluc-edit reporter cells (viability/apoptosis). Particulars: FIG. 24C. Type of assay: cell-based, human. Here is the method:
A HeLa cell line (telomerase positive) permanently transformed with a dual luciferase reporter system (HeLa-Nluc-edit) as described by Fritzell, K. et al (Sensitive ADAR editing reporter in cancer cells enables high-throughput screening of small molecule libraries. Nucleic acids research 47, e22, doi:10.1093/nar/gky1228 (2019), which is incorporated herein by reference) were seeded at a density of 800 cells per well into 384 white plates (PerkinElmer, CulturPlate384, #6007689) in 20 μl of Opti-MEM without phenol red (Thermo Fisher Scientific #11058021) using a multidrop dispenser (Thermo Fisher Scientific) and incubated overnight at 37-C, 5% CO2. The cells were then treated with test compounds (Maybridge HitFinder Diversity Set library) for 72 h prior to luminescence signal detection. Briefly, 10 μl of Steadylite Plus FFL assay system reagents were added and firefly luminescence signal was measured within 10-20 min after the addition using a multiplate reader at 1 s integration time. Firefly luciferase activity was calculated for each well and results for each plate were normalized to a negative (0.1% DMSO) and positive (Doxorubicin 10 microM) control. […]
For the second screen, 10 μl of Steadylite Plus FFL assay system reagents were added and firefly luminescence signal was measured within 10-20 min after the addition using a multiplate reader at 1 s integration time. […]

In the case of `Nc1ncnc2c1nnn2[C@@H]1O[C@H](CO)[C@@H](O)[C@H]1O` [8-azaadenosine], the ADAR inhibition result at ADAR is reported as “not ADAR inhibitors”.
`Nc1ncnc2c1nc(Cl)n2[C@@H]1O[C@H](CO)[C@@H](O)[C@H]1O` [8-chloroadenosine]: the ADAR inhibition entry on ADAR was “not ADAR inhibitors”.
Take `COc1cccc2c1C(=O)c1c(O)c3c(c(O)c1C2=O)C[C@@](O)(C(=O)CO)C[C@@H]3O[C@H]1C[C@H](N)[C@H](O)[C@H](C)O1` [Doxorubicin]: in the assay with HeLa-Nluc-edit cells, the “apoptosis detected by reduction of the FFL activity” value is given as “induces acute apoptosis”.
